Test results as given in patent US20250195523A1, “ORGANIC MOLECULES FOR TREATING MYELIN PATHOLOGIES” (ICM (INSTITUT DU CERVEAU ET DE LA MOELLE ÉPINIÈRE), priority 2022, published 2025).

How the values were obtained:
[1] = test system: focal demyelination in the corpus callosum of adult mice; test: Lysolecithin (LPC) induced focal de/remyelination model in adult mice, oral administration in drinking water; assay type: in vivo; conditions: 7 dpl, oral daily
Procedure: We weighted and anesthetized 4 months old RjOrl: SWISS mice (Janvier) with isoflurane (induced at 3%, and maintained at 1.2-1.6%). We induced focal demyelinating lesions by injecting 0.5 μl of a solution of 1% lysolecithin (LPC, Sigma in 0.9% NaCl solution) into the corpus callosum. To do so, a glass-capillary connected to a 10 μl Hamilton syringe was fixed and oriented through stereotaxic apparatus (coordinates: 1 mm lateral, 1.3 mm rostral to Bregma, 1.7 mm deep to brain surface). Animals were left to recover for a few hours in a warm chamber. […] Mice was perfused at 2% cold paraformaldehyde (thermos fisher) at 7 DPI.
For in-vivo cryosections (14-μm thick) of lesions, immunohistochemistry was performed after 30 mn drying at RT in a moist chamber. For myelin staining, ethanol treatment (100%) was performed for 10 mn at RT. Briefly, sections were permeabilized and blocked in a blocking buffer for 1 h (0.05% Triton X-100/10% normal goat serum/PBS). Then, cryosections were incubated overnight with the following primary antibodies at 4° C.: Mouse anti-APC (CC1 IgG2B; 1:100, calbiochem); Rabbit anti-Olig2 (1:500; Millipore); Mouse anti-Olig1 (IgG1; 1:500; NeuroMab); Rat anti-CD68 (1:500, AbD SEROTEC/BioRad); Rabbit anti-IBA1 (1:500, Wako Fujifilm); Mouse anti-MOOG (mlgG1, 1:20; Hybridoma). Then sections were washed 3 times in 0.05% Triton X-100/PBS and incubated 1 hour at RT with appropriate secondary antibodies conjugated with Alexa Fluor 488, 594 and 647 (1:1000; Molecular Probes or Thermo Fisher) and Dapi (1:5000 from working solution at 5 mg/ml; Life Technologies; D1306). Sections were washed 3 times in 0.05% Triton X-100/PBS and mounted with Fluoromount-G (SouthernBiotech).
We analyzed the lesions at 7 days post-lesion (7 dpl), when newly formed OLs have started to remyelinate the lesion in this model. The lesion area was identified by immunodetection of the high cellular density with DAPI staining, reduction of myelin with myelin oligodendrocyte glycoprotein (MOG), and abundance of microglia/macrophages with Iba1 and Cd68. We determined the effect of the drugs to promote oligodendrogenesis at the lesion site by combinatory immunodetection of Olig2, CC1 and Olig1, allowing to distinguish OPCs (Olig2^high/CC1^−/Olig1^nuclear-cyto cells) and three stages in OL differentiation: iOL1 (Olig2^high/CC1^high/Olig1^− cells), iOL2 (Olig2^high/CC1^high/Olig1^high-cyto cells), and mOL (Olig2^low/CC1^low/Olig1^low cells). […] Given the increase in OL differentiation by the drugs administration, without diminishing the pool of OPCs in the lesion area, we assessed for the proliferative status of OPCs, using Mcm2 and Ki67 proliferative markers, finding that both drugs promote a ˜2-fold increase in the density of proliferative OPCs (FIG. 4D) and in the proportion of proliferative OPCs (FIG. 4E).
To investigate the possible anti-inflammatory and pro-regenerative activity of these drugs, we performed staining for microglia/macrophages (Iba1+ cells), their active phagocytic status (Cd68+ cells), together with myelin (MOG) and cell density (DAPI) to identify the lesion area.

[2] = test system: neonatal chronic hypoxia model (dorsal SVZ and cortex); test: Neonatal chronic hypoxia model of preterm birth brain injury, intranasal administration; assay type: in vivo, mice
Procedure: Mice aged P1 were placed in a hypoxic rearing chamber maintaining at 9.5-10.5% O2 concentration by displacement with N2. Hypoxia began at the postnatal day 3 (P3) for 8 days until P11. A separate group was maintained in a normal atmosphere (normoxic group). […] Mucus was first permeabilized by the use of type IV hyaluronidase, then 10 μl of drugs (Sigma) was administered 3 times, 1 time a day from P11 to P13 (starting at the end of the hypoxic period, then every 24 hours) in sterile PBS (control). For analysis of proliferation, mice were injected with EdU (Sigma) in order to label cells in an actively cycling state in S-phase, then perfused 1 h later at P13. For analysis of OL maturation, mice were perfused at P19. All perfusions were performed with Ringer, followed by ice cold solution of 4% paraformaldehyde (Thermo Fisher). Mice were sacrificed at P13 or P19 by an intraperitoneal overdose of pentobarbital followed by perfusion with Ringer's lactate solution and 4% paraformaldehyde (PFA; Sigma) dissolved in 0.1M phosphate buffer (PB; pH 7.4). Brains were removed and post-fixed for 24 hours at 4° C. in 4% PFA and sectioned in 50 μm thick coronal serial sections, free floating sections.
For in vivo-cryosections (50 μm) of chronic hypoxia, antigen retrieval was performed for 20 min in a citrate buffer (ph 6.0) at 80° C., then cooled for 20 min at room temperature and washed in 0.1M PB. The following antibody were used for immunohistochemical procedures: Mouse anti-APC (CC1 IgG2B; 1:100, calbiochem); Mouse anti-Olig2 (1:1500; Millipore); Rabbit anti-Olig2 (1:400; Millipore); Rabbit anti-GSTpi (1:1000, Enzo). Blocking was performed in a TNB buffer (0.1 M PB; 0.05% Casein; 0.25% Bovine Serum Albumin; 0.25% TopBlock) with 0.4% triton-X (TNB-Tx). Sections were incubated overnight at 4° C. with gentle shaking. Following extensive washing in 0.1 M PB with 0.4% triton-X (PB-Tx), sections were incubated with appropriate secondary antibodies conjugated with Alexa Fluor 488 or 555 (1:500; Jackson or Invitrogen) for 2 hrs at room temperature. Sections were washed and counterstained with Dapi (1:5000 from a working solution at 5 mg/ml; Life Technologies; D1306). Revelation of EdU was done using Click-it™, EdU cell proliferation Kit for imaging, Alexa fluor™ 647 dye (Thermo Fisher scientific).
Chronic hypoxia is a well-established model of very preterm birth, that induces a diffuse perinatal brain lesion by housing the pups at 10% oxygen from P3 to P11 (FIG. 5A). This neonatal hypoxia induces a marginal cell death including neuronal and glial cells along with delay into forebrain development including OL maturation that appear to persist in adulthood. […] We next assessed the impact on OL differentiation by immunodetection of OLs with CC1 antibody and oligodendroglial cells by Olig2.

CCCCOc1ccc(C(=O)CCN2CCCCC2)cc1.Cl [Sm5, Dyclonine hydrochloride]
number of oligodendroglial cells in the remyelinating area (Olig2+ cells) ([1]; sm5 at 5 μg per g, control 942.5±265.7, FIG. 4B): 1208±281.1 Olig2+ cells per mm^2 | density of OPCs (Olig2high/CC1−/Olig1nuclear-cyto cells) in the lesion area ([1]; FIG. 4C): did not change | increase of the differentiation ratio (number of OLs per OPC) versus control ([1]; FIG. 4F): 2 fold | pro-regenerative microglia (Arg1+ cells) ([1]; FIG. 4I): corresponding increase | actively phagocytic microglia/macrophages (Cd68+ cells) ([1]; control 22.45%, FIG. 4H): reduction of their phagocytic population | differentiation ratio (number of OLs per OPC) ([1]; control 25% (1 OLs for 4 OPCs), FIG. 4F): 50% | surface occupied by Iba1+ microglia/macrophages in the lesion area ([1]; control 33.64%, FIG. 4G): trend to reduce | increase of each stage of OL differentiation (iOL1, iOL2 & mOL) ([1]; versus control): more moderate effect only significant at the iOL2 stage | increase in the density of proliferative OPCs (Mcm2, Ki67 markers) ([1]; versus control, FIG. 4D): ~2 fold | increase in the proportion of proliferative OPCs ([1]; versus control, FIG. 4E): ~2 fold | EdU+ cell density within the subventricular zone (proliferation) ([2]; P13, intranasal P11 to P13, sm5 at 5 μg per g, sm11 at 0.5 μg per g, versus hypoxia, FIG. 6A): no marked additive effects | proportion of Olig2+ cells labeled with EdU (proliferative OPCs, dorsal SVZ) ([2]; P13, intranasal P11 to P13, versus hypoxia, FIG. 6B): significant increase | myelinating OLs (GSTπ+ cells), GSTπ expression ([2]; P19, cortex, intranasal P11 to P13, after hypoxia, FIG. 5D): complete recovery | OL differentiation, ratio of Olig2+ cells expressing CC1 ([2]; P19, cortex, intranasal P11 to P13, compared to hypoxic and normoxic groups, FIG. 5C): increased OL differentiation beyond the normoxic and sm11 groups | density of oligodendroglial cells (Olig2+ cells) in the cortex ([2]; P19, intranasal P11 to P13, FIG. 5B): no major effect
